These results are taken from patent publication US11485792B2, “Antibodies, uses thereof and conjugates thereof” (Polytherics Limited, priority 2016, dated 2022).

Where two headings read alike, the source gives them in different places. Where a SMILES comes first, the peptide text is derived from it. [ ]: non-standard residue; d: D form. The star is where a group is joined. Dolaproine = CO[C@@H]([C@@H]1CCCN1)[C@@H](C)C(=O)O; Dil = CC[C@H](C)[C@H](NC)[C@@H](CC(=O)O)OC; X1 = C[C@@H](N*)[C@@H](O)c1ccccc1; NMeV = CN[C@H](C(=O)O)C(C)C

One series deals with C4-2 cells. As to the kind of experiment: In vitro cell viability assay (CellTiter Glo), C4-2. The format is cell-based, human. To be noted: Example 16; PSMA-positive C4-2, 96 h. An excerpt: (§1) The protocol describes cell seeding, drug treatment and determination of the cell viability in reference to untreated cells based on ATP synthesis, which is directly related to the number of cells present in the well.

The next series relates to PC-3 cells. Description: In vitro cell viability assay (CellTiter Glo), PC-3 (PSMA-negative control). To be noted: Example 16; PSMA-negative PC-3 (negative control), 96 h. The format is cell-based. An excerpt: Loss of tumour cell viability following treatment with cytotoxic drugs or ADCs in vitro can be measured by growing cell lines in the presence of increasing concentrations of drugs or ADCs and quantifying the loss of proliferation or metabolic activity using CellTiter Glo® Luminescence reagent (Promega Corp. Technical Bulletin TB288; Lewis Phillips G. D, Cancer Res 2008; 68:9280-9290). The protocol describes cell seeding, drug treatment and determination of the cell viability in reference to untreated cells based on ATP synthesis, which is directly related to the number of cells present in the well.
PSMA-positive LNCaP (clone FGC) and C4-2 cells, as well as PSMA-negative PC-3 cells were detached with TrypLE and resuspended in complete medium. Cells were counted using disposable Neubauer counting chambers and cell density adjusted to 10×10^4 cells/mL for LNCaP, 2×10^4 cells/mL for C4-2 and 1×10^4 cells/mL for PC-3 respectively. […]
The cell viability assay was carried out using the Cell-Titer Glo® Luminescence reagent, as described by the manufacturer's instructions, (Promega Corp. Technical Bulletin TB288; Lewis Phillips G. D, Cancer Res 2008; 68:9280-9290). Luminescence was recorded using a plate reader (e.g. Molecular Devices Spectramax M3 plate reader), and data subsequently analysed using a four parameter non-linear regression model. […]
On the technique in general: Cellular ATP, detected with luciferase, serves as a proxy for viable cell number.

A further series concerns LNCaP cells. Format: cell-based.
Text: as §1

Series [1] can be described thus: Heat stress test with SEC analysis of aggregation. The format is physicochemical. Here is the method: Antibody samples (0.5 mg/mL in PBS) were incubated at 75° C. for 30 min followed by incubation in an ice-bath for 5 min prior to being analysed for their extent of aggregation. Analysis of antibody solutions was carried out by Size Exclusion Chromatography (SEC) and by turbidity measurements.
SEC was performed using a TOSOH Bioscience TSK gel Super SW 3000 column. UV absorbance at 280 nm was monitored during an isocratic elution with a 0.2 M Potassium phosphate buffer, pH 6.8 (0.2 M potassium chloride and 15% isopropanol). The elution times and number of peaks indicate whether the sample contains aggregated, degraded or native antibody. The % area under the curve (Abs280) was used to determine the quantity of each species present in the SEC analysis.
On the technique in general: In gel filtration, larger molecules generally elute earlier.

Where [2] appears, read: post stress test: 0.5 mg/mL in PBS, 75° C. for 30 min, then ice-bath 5 min, SEC.

Broadly, the IC50 is the concentration that gives 50% inhibition. Read a high IC50 as weaker potency in that assay. In the case of `COc1cc2cc(c1Cl)N(C)C(=O)C[C@H](OC(=O)[C@H](C)N(C)C(=O)CCCCCN)[C@]1(C)O[C@H]1[C@H](C)[C@@H]1C[C@@](O)(NC(=O)O1)[C@H](OC)/C=C/C=C(\C)C2` [AHX-DM1], the IC50 in the series with C4-2 cells was 57 nM; in the series on PC-3 cells it was above 1000 nM; with LNCaP cells (Example 16, PSMA-positive LNCaP, 96 h), 341 nM.

Regarding `CC[C@H](C)[C@@H]([C@@H](CC(=O)N1CCC[C@H]1[C@H](OC)[C@@H](C)C(=O)N[C@H](C)[C@@H](O)c1ccccc1)OC)N(C)C(=O)[C@@H](NC(=O)[C@@H](NC)C(C)C)C(C)C` [MMAE] (H-[NMeV]V[Dil][Dolaproine]-X1), the concentration for half-maximal inhibition (IC50) turned out to be 0.28 nM with C4-2 cells; 8.2 nM in the series with PC-3 cells; 0.81 nM in the series with LNCaP cells (Example 14, LNCaP, 96 h incubation).

“AB-22: de-immunised J591 anti-PSMA antibody, SEQ ID No 25 and 26; prior art comparator”: in series [1] (setting [2]), the “Ab in aggregated form (%)” value worked out at 100% and the “Ab in native conformation (%)” value stood at 0%. For the same compound, the “stability in heat stress SEC analysis (in words)” value in series [1] (propensity to aggregate upon heating and cooling) is “less stable than AB-03”.
